In PubChem BioAssay AID2060492 (Molecular Pharmacology Branch, DTP, NCI, 2025):

Test system: 695427-040-R-J1-PDC complex spheroids, viability percent T/C
Assay: Anticancer human tumor 695427-040-R-J1-PDC patient-derived colon adenocarcinoma cell line growth inhibition [GQUAD]
Conditions: for IC50: curve of first compound; for viability, T/C: stronger effect = lower value
In short: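 Viability of tumor cells grown as complex spheroids with endothelial and stromal cells, exposed to drug combinations. Top concentration at or near clinical Cmax (else 10 microM), diluted in half-log increments.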

[1] = second compound 0.0316 µM, first compound 0.0316 µM
[2] = second compound 0.0316 µM, first compound 0.1 µM
[3] = second compound 0.0316 µM, first compound 0.316 µM
[4] = second compound 0.0316 µM, first compound 1 µM
[5] = second compound 0.0316 µM, first compound 3.16 µM
[6] = second compound 0.0316 µM, first compound 10 µM
[7] = second compound 0.1 µM, first compound 0.0316 µM
[8] = second compound 0.1 µM, first compound 0.1 µM
[9] = second compound 0.1 µM, first compound 0.316 µM
[10] = second compound 0.1 µM, first compound 1 µM
[11] = second compound 0.1 µM, first compound 3.16 µM
[12] = second compound 0.1 µM, first compound 10 µM
[13] = second compound 0.316 µM, first compound 0.0316 µM
[14] = second compound 0.316 µM, first compound 0.1 µM
[15] = second compound 0.316 µM, first compound 0.316 µM
[16] = second compound 0.316 µM, first compound 1 µM
[17] = second compound 0.316 µM, first compound 3.16 µM
[18] = second compound 0.316 µM, first compound 10 µM
[19] = second compound 1 µM, first compound 0.0316 µM
[20] = second compound 1 µM, first compound 0.1 µM
[21] = second compound 1 µM, first compound 0.316 µM
[22] = second compound 1 µM, first compound 1 µM
[23] = second compound 1 µM, first compound 3.16 µM
[24] = second compound 1 µM, first compound 10 µM
[25] = second compound 3.16 µM, first compound 0.0316 µM
[26] = second compound 3.16 µM, first compound 0.1 µM
[27] = second compound 3.16 µM, first compound 0.316 µM
[28] = second compound 3.16 µM, first compound 1 µM
[29] = second compound 3.16 µM, first compound 3.16 µM
[30] = second compound 3.16 µM, first compound 10 µM
[31] = second compound 10 µM, first compound 0.0316 µM
[32] = second compound 10 µM, first compound 0.1 µM
[33] = second compound 10 µM, first compound 0.316 µM
[34] = second compound 10 µM, first compound 1 µM
[35] = second compound 10 µM, first compound 3.16 µM
[36] = second compound 10 µM, first compound 10 µM
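Also: spheroids exposed to compounds for seven days before readout.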

**Q.** What does the source list for `C=CC(=O)N1CCN(c2nc(=O)n(-c3c(C)ccnc3C(C)C)c3nc(-c4c(O)cccc4F)c(F)cc23)C(C)C1` (stereo unspecified) + Cc1[nH]c2ccc(F)cc2c1-c1nc2c3cccnc3c3ncccc3c2[nH]1?
**A.** IC50 (second compound 0.0316 µM): > 10 µM; IC50 (second compound 0.1 µM): > 10 µM; IC50 (second compound 0.316 µM): > 10 µM; IC50 (second compound 1 µM): > 10 µM; IC50 (second compound 3.16 µM): > 10 µM; IC50 (second compound 10 µM): > 10 µM; viability, T/C [1]: 108%; viability, T/C [2]: 86%; viability, T/C [3]: 107%; viability, T/C [4]: 83%; viability, T/C [5]: 93.2%; viability, T/C [6]: 90.2%; viability, T/C [7]: 101%; viability, T/C [8]: 87.6%; viability, T/C [9]: 99.9%; viability, T/C [10]: 67.8%; viability, T/C [11]: 104%; viability, T/C [12]: 106%; viability, T/C [13]: 102%; viability, T/C [14]: 95.7%; viability, T/C [15]: 84.2%; viability, T/C [16]: 94.8%; viability, T/C [17]: 86.9%; viability, T/C [18]: 92.8%; viability, T/C [19]: 80.5%; viability, T/C [20]: 90%; viability, T/C [21]: 79.6%; viability, T/C [22]: 101%; viability, T/C [23]: 104%; viability, T/C [24]: 76.8%; viability, T/C [25]: 69%; viability, T/C [26]: 77.1%; viability, T/C [27]: 81.5%; viability, T/C [28]: 86.5%; viability, T/C [29]: 90.3%; viability, T/C [30]: 86.8%; viability, T/C [31]: 73.6%; viability, T/C [32]: 81.2%; viability, T/C [33]: 86.2%; viability, T/C [34]: 82.7%; viability, T/C [35]: 81.8%; viability, T/C [36]: 69.1%

**Q.** How did the IC50 (second compound 0.0316 µM) turn out when `CC(C)n1c(=O)n(C)c2cnc3cc(F)c(-c4ccc(OCCCN5CCCCC5)nc4)cc3c21` + Cc1[nH]c2ccc(F)cc2c1-c1nc2c3cccnc3c3ncccc3c2[nH]1 was run?
**A.** > 10 µM

**Q.** And the IC50 (second compound 0.1 µM)?
**A.** > 10 µM

**Q.** What about the IC50 (second compound 0.316 µM) of the same molecule?
**A.** > 10 µM

**Q.** And the IC50 (second compound 1 µM)?
**A.** 9.84 µM

**Q.** And the IC50 (second compound 3.16 µM)?
**A.** > 10 µM

**Q.** What about the IC50 (second compound 10 µM) of the same molecule?
**A.** 7.23 µM

**Q.** And the viability, T/C [1]?
**A.** 116%

**Q.** What about the viability, T/C [2] of the same molecule?
**A.** 92.2%

**Q.** What about the viability, T/C [3] of the same molecule?
**A.** 116%

**Q.** What about the viability, T/C [4] of the same molecule?
**A.** 74.3%

**Q.** And the viability, T/C [5]?
**A.** 93.5%

**Q.** And the viability, T/C [6]?
**A.** 65.4%

**Q.** What about the viability, T/C [7] of the same molecule?
**A.** 101%

**Q.** What about the viability, T/C [8] of the same molecule?
**A.** 97.2%

**Q.** What about the viability, T/C [9] of the same molecule?
**A.** 128%

**Q.** What about the viability, T/C [10] of the same molecule?
**A.** 91.7%

**Q.** And the viability, T/C [11]?
**A.** 94.3%

**Q.** And the viability, T/C [12]?
**A.** 58.8%

**Q.** And the viability, T/C [13]?
**A.** 102%

**Q.** What about the viability, T/C [14] of the same molecule?
**A.** 120%

**Q.** What about the viability, T/C [15] of the same molecule?
**A.** 96.4%

**Q.** And the viability, T/C [16]?
**A.** 98.7%

**Q.** And the viability, T/C [17]?
**A.** 99.2%

**Q.** And the viability, T/C [18]?
**A.** 61.3%

**Q.** What about the viability, T/C [19] of the same molecule?
**A.** 84.2%

**Q.** And the viability, T/C [20]?
**A.** 106%

**Q.** And the viability, T/C [21]?
**A.** 111%

**Q.** And the viability, T/C [22]?
**A.** 109%

**Q.** What about the viability, T/C [23] of the same molecule?
**A.** 106%

**Q.** And the viability, T/C [24]?
**A.** 49.1%

**Q.** What about the viability, T/C [25] of the same molecule?
**A.** 86.8%

**Q.** And the viability, T/C [26]?
**A.** 85%

**Q.** And the viability, T/C [27]?
**A.** 94.8%

**Q.** And the viability, T/C [28]?
**A.** 96.2%

**Q.** What about the viability, T/C [29] of the same molecule?
**A.** 92.2%

**Q.** And the viability, T/C [30]?
**A.** 50.3%

**Q.** And the viability, T/C [31]?
**A.** 61.7%

**Q.** What about the viability, T/C [32] of the same molecule?
**A.** 83%

**Q.** What about the viability, T/C [33] of the same molecule?
**A.** 95.5%

**Q.** And the viability, T/C [34]?
**A.** 80.9%

**Q.** And the viability, T/C [35]?
**A.** 87.1%

**Q.** And the viability, T/C [36]?
**A.** 37.6%

**Q.** How did the IC50 (second compound 0.0316 µM) turn out when `CC1COCCN1c1cc(C2(O)CC3CCC(C2)O3)c2cnn(-c3ccn[nH]3)c2n1` (stereo unspecified) + Cc1[nH]c2ccc(F)cc2c1-c1nc2c3cccnc3c3ncccc3c2[nH]1 was run?
**A.** 0.735 µM

**Q.** What about the IC50 (second compound 0.1 µM) of the same molecule?
**A.** 0.59 µM

**Q.** What about the IC50 (second compound 0.316 µM) of the same molecule?
**A.** 0.569 µM

**Q.** And the IC50 (second compound 1 µM)?
**A.** 0.29 µM

**Q.** And the IC50 (second compound 3.16 µM)?
**A.** 0.253 µM

**Q.** And the IC50 (second compound 10 µM)?
**A.** 0.455 µM

**Q.** And the viability, T/C [1]?
**A.** 83.2%

**Q.** And the viability, T/C [2]?
**A.** 84.2%

**Q.** What about the viability, T/C [3] of the same molecule?
**A.** 65.7%

**Q.** And the viability, T/C [4]?
**A.** 42.5%

**Q.** What about the viability, T/C [5] of the same molecule?
**A.** 36%

**Q.** What about the viability, T/C [6] of the same molecule?
**A.** 24.6%

**Q.** What about the viability, T/C [7] of the same molecule?
**A.** 93.8%

**Q.** What about the viability, T/C [8] of the same molecule?
**A.** 77.5%

**Q.** And the viability, T/C [9]?
**A.** 70.4%

**Q.** What about the viability, T/C [10] of the same molecule?
**A.** 31.4%

**Q.** What about the viability, T/C [11] of the same molecule?
**A.** 37.6%

**Q.** And the viability, T/C [12]?
**A.** 28.1%

**Q.** What about the viability, T/C [13] of the same molecule?
**A.** 85.2%

**Q.** What about the viability, T/C [14] of the same molecule?
**A.** 64%

**Q.** What about the viability, T/C [15] of the same molecule?
**A.** 60.6%

**Q.** What about the viability, T/C [16] of the same molecule?
**A.** 41.7%

**Q.** What about the viability, T/C [17] of the same molecule?
**A.** 37.5%

**Q.** What about the viability, T/C [18] of the same molecule?
**A.** 30.2%

**Q.** What about the viability, T/C [19] of the same molecule?
**A.** 86.2%

**Q.** And the viability, T/C [20]?
**A.** 55.8%

**Q.** And the viability, T/C [21]?
**A.** 55.2%

**Q.** And the viability, T/C [22]?
**A.** 33.6%

**Q.** What about the viability, T/C [23] of the same molecule?
**A.** 41%

**Q.** And the viability, T/C [24]?
**A.** 21.2%

**Q.** What about the viability, T/C [25] of the same molecule?
**A.** 67%

**Q.** What about the viability, T/C [26] of the same molecule?
**A.** 55.8%

**Q.** What about the viability, T/C [27] of the same molecule?
**A.** 50.9%

**Q.** What about the viability, T/C [28] of the same molecule?
**A.** 34.2%

**Q.** What about the viability, T/C [29] of the same molecule?
**A.** 33.2%

**Q.** And the viability, T/C [30]?
**A.** 17.4%

**Q.** And the viability, T/C [31]?
**A.** 59%

**Q.** And the viability, T/C [32]?
**A.** 59.8%

**Q.** And the viability, T/C [33]?
**A.** 61.7%

**Q.** What about the viability, T/C [34] of the same molecule?
**A.** 27.9%

**Q.** And the viability, T/C [35]?
**A.** 30.4%

**Q.** And the viability, T/C [36]?
**A.** 22.3%
